IC50 and minimal effective dose data for 26 compounds are collected here from ChEMBL document CHEMBL1133639, “Subtype-selective N-methyl-D-aspartate receptor antagonists: synthesis and biological evaluation of 1-(heteroarylalkynyl)-4-benzylpiperidines” (J Med Chem, 2000).

Assay [1] deals with Glutamate receptor ionotropic, NMDA 1 (Homo sapiens, UniProt Q05586+Q14957). In words: Concentration required for 50% Inhibition of responses at cloned NR1A/2C NMDA expressed in Xenopus oocytes. Format: cell-based, Oocyte.
Assay [2] addresses Glutamate receptor ionotropic, NMDA 1 (Homo sapiens, UniProt Q05586+Q12879). In words: Concentration required for 50% Inhibition of responses at cloned NR1A/2A NMDA expressed in Xenopus oocytes. Format: cell-based, Oocyte.
The target in assay [3] is Glutamate receptor ionotropic, NMDA 1 (Homo sapiens, UniProt Q05586). In words: Concentration required for 50% Inhibition of responses at cloned NR1A/2AB NMDA expressed in Xenopus oocytes. It counts as cell-based, Oocyte.
Assay [4] deals with D(2) dopamine receptor (Rattus norvegicus, UniProt P61169). The assay can be described thus: Displacement of [3H]raclopride at Dopamine receptor D2 in brain striata (n=1). It counts as tissue-based.
Sequence of D(2) dopamine receptor (P61169 whole entry): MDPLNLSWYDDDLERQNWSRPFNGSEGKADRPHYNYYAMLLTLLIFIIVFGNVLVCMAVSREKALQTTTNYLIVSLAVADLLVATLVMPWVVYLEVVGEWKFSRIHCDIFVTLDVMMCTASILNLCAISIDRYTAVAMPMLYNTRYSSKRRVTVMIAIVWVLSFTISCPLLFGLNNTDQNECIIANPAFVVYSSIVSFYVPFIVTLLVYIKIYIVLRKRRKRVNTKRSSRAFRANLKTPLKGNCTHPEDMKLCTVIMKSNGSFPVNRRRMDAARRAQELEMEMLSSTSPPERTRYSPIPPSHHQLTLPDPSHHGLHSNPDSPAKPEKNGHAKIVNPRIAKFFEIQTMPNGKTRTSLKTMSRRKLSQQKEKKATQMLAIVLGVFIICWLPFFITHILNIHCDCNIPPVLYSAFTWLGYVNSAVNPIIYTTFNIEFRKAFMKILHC
Assay [5] deals with Rattus norvegicus. The assay can be described thus: Lowest oral dose that shows significant potentiation of total contraversive rotations over 3 hr caused by L-DOPA (10mg/kg, sc) in 6-hydroxydopamine-lesioned rats (n=8) administered perorally. It counts as functional. The note with it: read-out: MED.
Assay [6] addresses T1, Adrenergic receptor alpha-1 (Rattus norvegicus, UniProt P15823+P23944+P43140).
T1 sequence (P15823 whole entry): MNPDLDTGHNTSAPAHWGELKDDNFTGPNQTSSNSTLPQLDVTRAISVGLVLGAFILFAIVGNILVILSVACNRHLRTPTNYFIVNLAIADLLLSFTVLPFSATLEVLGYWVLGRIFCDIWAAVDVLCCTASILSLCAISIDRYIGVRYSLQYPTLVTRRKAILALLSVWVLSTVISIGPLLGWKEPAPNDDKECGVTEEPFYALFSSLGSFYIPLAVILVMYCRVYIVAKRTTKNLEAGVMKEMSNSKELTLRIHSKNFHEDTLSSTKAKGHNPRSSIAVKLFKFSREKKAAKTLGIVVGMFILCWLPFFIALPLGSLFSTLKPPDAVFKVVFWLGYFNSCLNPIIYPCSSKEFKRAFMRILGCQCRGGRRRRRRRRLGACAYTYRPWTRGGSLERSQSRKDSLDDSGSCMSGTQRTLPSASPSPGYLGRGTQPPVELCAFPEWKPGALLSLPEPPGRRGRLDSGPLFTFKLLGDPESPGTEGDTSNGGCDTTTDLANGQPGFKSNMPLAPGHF
T1 sequence (P23944 whole entry): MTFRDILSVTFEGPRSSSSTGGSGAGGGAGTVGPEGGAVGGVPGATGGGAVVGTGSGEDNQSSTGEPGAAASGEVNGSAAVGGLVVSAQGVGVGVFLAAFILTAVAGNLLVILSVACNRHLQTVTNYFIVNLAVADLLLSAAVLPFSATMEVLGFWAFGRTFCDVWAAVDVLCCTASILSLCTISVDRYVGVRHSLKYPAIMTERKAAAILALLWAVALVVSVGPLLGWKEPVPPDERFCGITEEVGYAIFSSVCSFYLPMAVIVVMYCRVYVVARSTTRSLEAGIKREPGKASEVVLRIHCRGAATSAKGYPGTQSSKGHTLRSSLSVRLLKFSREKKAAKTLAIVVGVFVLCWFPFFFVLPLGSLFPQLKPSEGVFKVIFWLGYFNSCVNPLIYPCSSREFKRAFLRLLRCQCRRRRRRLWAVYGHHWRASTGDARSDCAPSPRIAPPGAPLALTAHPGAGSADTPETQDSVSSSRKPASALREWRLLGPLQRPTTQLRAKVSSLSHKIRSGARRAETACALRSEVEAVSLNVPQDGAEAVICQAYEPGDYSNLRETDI
T1 sequence (P43140 whole entry): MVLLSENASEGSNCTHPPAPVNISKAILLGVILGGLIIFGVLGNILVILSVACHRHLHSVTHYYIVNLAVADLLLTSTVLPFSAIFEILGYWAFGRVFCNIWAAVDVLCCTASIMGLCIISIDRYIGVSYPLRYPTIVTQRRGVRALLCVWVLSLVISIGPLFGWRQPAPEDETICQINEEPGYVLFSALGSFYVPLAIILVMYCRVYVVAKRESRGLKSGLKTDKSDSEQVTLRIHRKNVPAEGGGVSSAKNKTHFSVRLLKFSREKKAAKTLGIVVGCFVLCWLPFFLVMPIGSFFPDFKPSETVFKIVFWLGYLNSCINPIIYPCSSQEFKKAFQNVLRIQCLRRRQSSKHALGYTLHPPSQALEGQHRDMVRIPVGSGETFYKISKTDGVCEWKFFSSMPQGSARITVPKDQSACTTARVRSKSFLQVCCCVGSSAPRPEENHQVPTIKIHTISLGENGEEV
In words: Displacement of [3H]-prazosin at alpha-1 adrenergic receptor inat brain cortices (n=1). (Loss of bound radioactivity is the signal in a displacement assay; it reports binding, not function.)

Assay [7] deals with T1, Adrenergic receptor alpha-1. In words: Displacement of [3H]prazosin at alpha-1 adrenergic receptor in rat brain cortices (n=1). It counts as tissue-based.
In assay [8] the test system is Rattus norvegicus. The assay can be described thus: Lowest oral dose that shows significant potentiation of total contraversive rotations over 3 hr caused by L-DOPA (10mg/kg, sc) in 6-hydroxydopamine-lesioned rats (n=8)administered perorally. The note with it: read-out: MED. It counts as functional.
Assay [9] deals with Rattus norvegicus. The assay can be described thus: Lowest oral dose that shows significant potentiation of total contraversive rotations over 3 hr caused by L-DOPA (10mg/kg, sc) in 6-hydroxydopamine-lesioned rats (n=8);administered perorally. Format: functional. Conditions: read-out: MED.
Assay [10] has as its target Glutamate receptor ionotropic, NMDA 2C (Rattus norvegicus, UniProt P35439+Q00961). In words: Concentration required for 50% Inhibition of responses at cloned NR1A/2C N-methyl-D-aspartate (NMDA) expressed in Xenopus oocytes. It counts as cell-based, Oocyte.
In assay [11] the target is Glutamate NMDA receptor; Grin1/Grin2a (Rattus norvegicus, UniProt P35439+Q00959). In words: Concentration required for 50% Inhibition of responses at cloned NR1A/2A N-methyl-D-aspartate (NMDA) expressed in Xenopus oocytes. It counts as cell-based, Oocyte.
Sequence of Glutamate NMDA receptor; Grin1/Grin2a (Q00959 whole entry, looked up, other chains not shown): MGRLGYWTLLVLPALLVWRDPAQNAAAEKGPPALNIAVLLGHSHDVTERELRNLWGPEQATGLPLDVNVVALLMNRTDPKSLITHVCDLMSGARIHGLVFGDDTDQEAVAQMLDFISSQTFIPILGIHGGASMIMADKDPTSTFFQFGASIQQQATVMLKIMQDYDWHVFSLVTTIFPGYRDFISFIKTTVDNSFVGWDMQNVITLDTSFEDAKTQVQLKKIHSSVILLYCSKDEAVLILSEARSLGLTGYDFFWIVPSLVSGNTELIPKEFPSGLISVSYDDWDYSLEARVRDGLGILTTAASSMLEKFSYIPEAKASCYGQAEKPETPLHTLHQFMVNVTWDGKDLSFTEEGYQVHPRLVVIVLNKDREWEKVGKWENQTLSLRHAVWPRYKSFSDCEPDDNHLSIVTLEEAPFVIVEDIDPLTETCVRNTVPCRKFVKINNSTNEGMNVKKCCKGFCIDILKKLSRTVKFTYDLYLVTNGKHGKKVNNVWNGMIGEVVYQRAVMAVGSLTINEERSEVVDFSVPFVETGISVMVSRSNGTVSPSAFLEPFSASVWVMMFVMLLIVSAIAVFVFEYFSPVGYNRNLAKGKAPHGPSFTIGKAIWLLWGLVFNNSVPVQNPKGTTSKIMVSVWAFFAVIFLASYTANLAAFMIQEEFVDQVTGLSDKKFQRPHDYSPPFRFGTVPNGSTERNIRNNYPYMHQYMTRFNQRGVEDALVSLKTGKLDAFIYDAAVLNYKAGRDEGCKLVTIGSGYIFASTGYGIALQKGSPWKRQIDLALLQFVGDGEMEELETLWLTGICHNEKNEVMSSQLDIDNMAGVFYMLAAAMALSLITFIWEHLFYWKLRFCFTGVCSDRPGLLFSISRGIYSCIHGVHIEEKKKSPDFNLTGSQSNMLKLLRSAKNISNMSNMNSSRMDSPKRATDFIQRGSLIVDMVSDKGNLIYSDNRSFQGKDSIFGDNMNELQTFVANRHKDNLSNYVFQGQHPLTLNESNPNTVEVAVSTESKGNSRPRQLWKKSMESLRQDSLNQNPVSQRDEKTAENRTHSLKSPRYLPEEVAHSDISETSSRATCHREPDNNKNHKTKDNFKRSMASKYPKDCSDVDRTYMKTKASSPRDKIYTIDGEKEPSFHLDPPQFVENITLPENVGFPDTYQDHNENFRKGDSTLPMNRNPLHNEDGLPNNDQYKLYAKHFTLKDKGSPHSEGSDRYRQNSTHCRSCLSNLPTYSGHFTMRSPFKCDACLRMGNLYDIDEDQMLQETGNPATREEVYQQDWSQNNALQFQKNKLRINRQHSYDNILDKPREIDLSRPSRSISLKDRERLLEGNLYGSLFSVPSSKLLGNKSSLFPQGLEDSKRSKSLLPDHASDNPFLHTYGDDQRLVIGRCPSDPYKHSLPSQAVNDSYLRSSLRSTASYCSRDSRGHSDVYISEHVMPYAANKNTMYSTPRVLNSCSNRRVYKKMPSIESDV

pIC50: −log10 of the molar value. Bounds are passed on as bounds.

Sequence of Glutamate receptor ionotropic, NMDA 2C (Q00961 whole entry, one chain of several): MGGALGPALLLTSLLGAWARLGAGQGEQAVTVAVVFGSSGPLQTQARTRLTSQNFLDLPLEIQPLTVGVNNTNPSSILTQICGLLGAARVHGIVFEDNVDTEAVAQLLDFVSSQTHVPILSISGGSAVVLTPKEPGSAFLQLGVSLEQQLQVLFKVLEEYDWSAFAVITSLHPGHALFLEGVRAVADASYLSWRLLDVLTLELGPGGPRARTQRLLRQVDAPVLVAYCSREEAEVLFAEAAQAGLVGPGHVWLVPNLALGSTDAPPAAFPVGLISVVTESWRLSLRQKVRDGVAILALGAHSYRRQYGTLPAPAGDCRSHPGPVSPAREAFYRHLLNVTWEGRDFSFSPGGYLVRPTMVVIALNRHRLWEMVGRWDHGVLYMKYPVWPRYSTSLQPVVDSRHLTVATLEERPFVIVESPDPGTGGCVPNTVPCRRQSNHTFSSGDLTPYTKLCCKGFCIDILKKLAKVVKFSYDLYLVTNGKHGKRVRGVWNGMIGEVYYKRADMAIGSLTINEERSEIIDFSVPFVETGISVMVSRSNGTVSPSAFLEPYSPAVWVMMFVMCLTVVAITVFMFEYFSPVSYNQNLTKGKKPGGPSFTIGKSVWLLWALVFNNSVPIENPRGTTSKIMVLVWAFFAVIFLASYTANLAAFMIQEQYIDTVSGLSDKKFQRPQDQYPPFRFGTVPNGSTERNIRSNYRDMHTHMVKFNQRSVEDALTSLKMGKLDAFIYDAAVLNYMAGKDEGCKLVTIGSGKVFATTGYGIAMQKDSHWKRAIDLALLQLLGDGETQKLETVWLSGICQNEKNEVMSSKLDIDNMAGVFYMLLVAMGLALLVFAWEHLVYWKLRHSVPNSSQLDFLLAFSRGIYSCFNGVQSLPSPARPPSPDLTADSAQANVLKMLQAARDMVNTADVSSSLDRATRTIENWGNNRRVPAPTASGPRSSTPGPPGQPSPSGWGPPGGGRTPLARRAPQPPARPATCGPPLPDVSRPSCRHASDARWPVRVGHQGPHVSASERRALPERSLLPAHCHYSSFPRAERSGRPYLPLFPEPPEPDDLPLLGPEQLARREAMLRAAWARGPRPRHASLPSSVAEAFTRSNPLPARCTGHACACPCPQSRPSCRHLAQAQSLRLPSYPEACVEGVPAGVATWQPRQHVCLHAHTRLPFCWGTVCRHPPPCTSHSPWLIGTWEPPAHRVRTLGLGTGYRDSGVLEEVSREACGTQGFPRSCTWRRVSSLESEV

Usually pIC50 stands for the IC50 on a negative log10 scale, so that one unit is a factor of ten. With `Cn1c(=O)[nH]c2cc(C#CCN3CCC(Cc4ccccc4)CC3)ccc21`, the pIC50 is below 4.00 in [1], 4.05 in assay [2] and 4.21 in assay [3].

The term IC50 denotes the concentration that inhibits the measured activity by half. The low end stands for higher potency, the high end for lower potency. In turn, `Oc1nc2cc(C#CCN3CCC(O)(Cc4ccc(F)cc4)CC3)ccc2[nH]1` showed a pIC50 in [4] of 4.39. Moreover, the minimal effective dose in [5] is above 30 mg/kg. In [6], this compound returned an IC50 of 18 µM.

Consider `Oc1nc2cc(C#CCN3CCC(O)(Cc4ccccc4)CC3)ccc2[nH]1`, for which the pIC50 in assay [4] is 4.07; in assay [1] it was below 4.00; in assay [2] it was below 4.00; in [3] it was 7.72. Moreover, the IC50 in assay [7] came to 55 µM.

As for `Oc1nc2cc(C#CCN3CCC(Cc4ccc(F)cc4)CC3)ccc2[nH]1`, the pIC50 in assay [4] was 5.77; in [1], below 4.00; in [2], 4.42; in assay [3], 8.09. Moreover, the minimal effective dose in assay [8] was determined as 30 mg/kg. The compound further returned an IC50 in assay [7] of 1.2 µM.

With `Oc1nc2cc(C#CCN3CCC(Cc4cccc(F)c4)CC3)ccc2[nH]1`, the pIC50 in assay [4] is 5.41; in assay [1], below 4.00; in [2] it was below 4.00; in assay [3], 8.21. The minimal effective dose in assay [8] is above 30 mg/kg. For the same compound, the IC50 in assay [7] was 0.7 µM.

As for `Oc1nc2cc(C#CCN3CCC(Cc4ccc(Cl)cc4)CC3)ccc2[nH]1`, the minimal effective dose in assay [9] came out at 30 mg/kg. Also, the pIC50 in assay [4] is 5.43; in assay [3], 7.72. For the same compound, in assay [7], the IC50 worked out at 5.8 µM.

Take `Oc1nc2ccc(C#CCN3CCC(Cc4ccccc4)CC3)cc2o1`: the pIC50 in assay [3] was 7.31.

With `O=c1[nH]c2ccc(C#CCCN3CCC(Cc4ccccc4)CC3)cc2o1`, the pIC50 is below 4.00 in assay [1], 4.41 in assay [2] and 6.92 in assay [3].

Consider `O=C1COc2cc(C#CCCN3CCC(Cc4ccccc4)CC3)ccc2N1`, for which the pIC50 is below 4.00 in [1], below 4.00 in assay [2] and 5.96 in assay [3].

Regarding `Oc1ccc(C#CCN2CCC(Cc3ccccc3)CC2)cc1`, the pIC50 in assay [10] and in [11] was below 4.00 throughout.

For the compound `C(#Cc1ccc2[nH]ncc2c1)CCN1CCC(Cc2ccccc2)CC1`, the pIC50 in [1] was below 4.00; in assay [2], 4.02; in assay [3], 6.60.

As to `O=c1[nH]c2ccc(C#CCCN3CCC(Cc4ccccc4)CC3)cc2[nH]1`, the pIC50 is below 4.00 in assay [1], 4.41 in assay [2] and 7.05 in assay [3].

Take `S=c1[nH]c2ccc(C#CCCN3CCC(Cc4ccccc4)CC3)cc2[nH]1`: the values for the pIC50 in assay [1], in [2] and in assay [3] were below 4.00, 4.12 and 6.74, respectively.

Take `S=c1[nH]c2ccc(C#CCN3CCC(Cc4ccccc4)CC3)cc2[nH]1`: the pIC50 in [1] is below 4.00; in assay [2] it was 4.60; in assay [3] it was 7.80.

For `C(#Cc1ccc2[nH]ncc2c1)CN1CCC(Cc2ccccc2)CC1`, the pIC50 in assay [1] is below 4.00; in assay [2], below 4.00; in [3], 6.42.

For `C(#Cc1ccc2cc[nH]c2c1)CCN1CCC(Cc2ccccc2)CC1`, the pIC50 in [10] and in assay [11] was below 4.00 in each case.

`Cn1c(=O)[nH]c2ccc(C#CCN3CCC(Cc4ccccc4)CC3)cc21` gave a pIC50 in [1] below 4.00.

`Oc1nc2cc(C#CCN3CCC(Cc4ccccc4)CC3)ccc2[nH]1` gave a pIC50 in assay [4] of 5.59. Besides, in [8], the minimal effective dose is 10 mg/kg. Besides, the IC50 in assay [7] turned out to be 0.5 µM.

Turning to `COc1ccc(CC2CCN(CC#Cc3ccc4[nH]c(O)nc4c3)CC2)cc1`, the pIC50 in [4] is 5.00; in [1], below 4.00; in assay [2] it was below 4.00; in assay [3], 7.59. In addition, the minimal effective dose in assay [8] is above 30 mg/kg. In addition, the IC50 in [7] is 17 µM.

Turning to `C(#Cc1ccc2nn[nH]c2c1)CCN1CCC(Cc2ccccc2)CC1`, the results for the pIC50 in assay [1], in [2] and in assay [3] were below 4.00, below 4.00 and 6.66, respectively.

As to `C(#Cc1ccc2[nH]nnc2c1)CN1CCC(Cc2ccccc2)CC1`, the pIC50 in assay [1] was below 4.00; in assay [2], below 4.00; in assay [3], 6.38.

For the compound `O=C1Nc2ccc(C#CCCN3CCC(Cc4ccccc4)CC3)cc2C1=O`, the pIC50 in assay [10] was below 4.00; in assay [2], 4.24; in [3], 5.74.

As to `Cc1ccc(CC2CCN(CC#Cc3ccc4[nH]c(O)nc4c3)CC2)cc1`, the pIC50 is 4.85 in assay [4] and 7.77 in assay [3]. For the same compound, the minimal effective dose in [8] worked out at 30 mg/kg. In assay [7], this compound returned an IC50 of 3.1 µM.

Turning to `O=C1Cc2cc(C#CCN3CCC(Cc4ccccc4)CC3)ccc2N1`, the values for the pIC50 in assay [1], in assay [2] and in [3] were below 4.00, below 4.00 and 6.96, respectively.

As for `C(#Cc1ccc2[nH]ccc2c1)CN1CCC(Cc2ccccc2)CC1`, the pIC50 in assay [1] was below 4.00; in assay [2], below 4.00; in [3], 4.82.

As for `O=C1Cc2cc(C#CCCN3CCC(Cc4ccccc4)CC3)ccc2N1`, the pIC50 in [1] is below 4.00; in [2] it was 4.28; in assay [3] it was 6.49.
